{
  "source": "patent US20220175744A1",
  "about": "“COMBINATIONS OF TRANSCRIPTION INHIBITORS AND IMMUNE CHECKPOINT INHIBITORS FOR TREATMENT OF DISEASE” (Board of Regents, The University of Texas System, priority 2019, published 2022)",
  "assay_type_in_all_cases": "cell-based",
  "key": {"p-STAT3": {"target": "T1, p-STAT3 (Homo sapiens, UniProt P40763)", "T1 construct": "endogenous in cells", "T1 sequence (P40763 whole entry)": "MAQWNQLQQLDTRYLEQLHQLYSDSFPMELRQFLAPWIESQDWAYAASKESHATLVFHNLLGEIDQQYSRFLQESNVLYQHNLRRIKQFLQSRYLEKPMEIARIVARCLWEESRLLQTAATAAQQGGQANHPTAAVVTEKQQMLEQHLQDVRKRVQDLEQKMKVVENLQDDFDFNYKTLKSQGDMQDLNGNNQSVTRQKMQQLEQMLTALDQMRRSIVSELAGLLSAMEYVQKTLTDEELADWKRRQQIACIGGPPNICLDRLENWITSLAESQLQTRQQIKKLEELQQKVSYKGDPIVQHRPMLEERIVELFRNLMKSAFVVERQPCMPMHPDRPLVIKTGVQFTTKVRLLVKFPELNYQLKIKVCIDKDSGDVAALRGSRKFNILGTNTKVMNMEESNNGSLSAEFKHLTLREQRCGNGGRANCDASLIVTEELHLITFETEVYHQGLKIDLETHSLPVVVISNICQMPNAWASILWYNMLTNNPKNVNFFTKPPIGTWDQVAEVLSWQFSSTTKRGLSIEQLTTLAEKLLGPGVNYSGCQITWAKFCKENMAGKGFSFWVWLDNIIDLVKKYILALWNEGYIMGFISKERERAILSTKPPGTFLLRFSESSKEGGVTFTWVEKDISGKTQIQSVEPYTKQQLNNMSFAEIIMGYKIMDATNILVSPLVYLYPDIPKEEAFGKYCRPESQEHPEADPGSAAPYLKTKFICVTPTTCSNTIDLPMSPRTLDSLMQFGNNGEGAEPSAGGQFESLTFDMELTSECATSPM", "assay": "inhibition of p-STAT3 by western blot and immunofluorescence in PDAC cell lines", "conditions": "all tested PDAC cell lines; western blot, immunofluorescence", "procedure": "The chemical synthesis of WP1066 and WP1732 and their characterization was performed at U.T. MD Anderson Cancer Center. In vitro efficacy of both inhibitors was assessed using proliferation and apoptosis induction assays in a panel of patient-derived and commercially-available PDAC cell lines. Inhibition of p-STAT3 was investigated using western blot (WB) and immunofluorescence. […] Observed IC50 values ranged from 0.5 to 2 μM."}, "[1]": {"system": "patient-derived and commercially-available PDAC cell lines", "assay": "apoptosis induction assay in PDAC cell lines", "conditions": "all tested PDAC cell lines"}, "[2]": {"system": "patient-derived and commercially-available PDAC cell lines", "assay": "proliferation assay in a panel of PDAC cell lines", "conditions": "range over all tested PDAC cell lines"}},
  "data": [
    {"smiles": "C[C@H](NC(=O)/C(C#N)=C/c1cccc(Br)n1)c1ccccc1", "note": "[WP1066]", "values": [
      {"measurement": "inhibition of p-STAT3 and its nuclear localization", "setting": "p-STAT3", "value": "inhibit p-STAT3 and its nuclear localization"},
      {"measurement": "apoptosis induction", "setting": "[1]", "value": "induce apoptosis"},
      {"measurement": "IC50", "setting": "[2]", "value": "500 to 2000", "unit": "nM"}
    ]}
  ]
}
